In test [1] the target is T1, Recombinant human protein tyrosine phosphatase 1B (PTP1B) (Homo sapiens, UniProt P18031).
T1 construct: purchased Enzo Life Sciences Inc. BML-SE332-0050
T1 sequence (P18031 1-322 limits assumed): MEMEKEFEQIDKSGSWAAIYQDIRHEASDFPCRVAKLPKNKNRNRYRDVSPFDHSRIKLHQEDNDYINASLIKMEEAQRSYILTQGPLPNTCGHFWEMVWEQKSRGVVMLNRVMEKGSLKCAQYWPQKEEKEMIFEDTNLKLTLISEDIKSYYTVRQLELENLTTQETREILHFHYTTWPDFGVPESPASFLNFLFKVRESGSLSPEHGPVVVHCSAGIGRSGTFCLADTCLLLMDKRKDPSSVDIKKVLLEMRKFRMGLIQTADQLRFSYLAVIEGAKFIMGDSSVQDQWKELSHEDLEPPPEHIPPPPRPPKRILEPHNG
Briefly: In vitro PTP1B inhibition assay (pNPP hydrolysis, absorbance at 405 nm). The format is biochemical. As to conditions: for IC50: isolated compounds, mean ± SD, n = 3. The method, then: (§1) Based on the method described by Tahtah et al., the PTP1B inhibition assay was performed at 25 °C using a two-component buffer, containing 50 mM Tris, 50 mM bis-Tris and 100 mM NaCl, adjusted to pH 7.0 with acetic acid. The final reaction volume was 180 µL, including 18 µL test sample dissolved in DMSO, 52 µL of buffer with 3.46 mM EDTA (final well concentrations 10% DMSO and 1 mM EDTA), and 60 µL of buffer with 1.5 mM pNPP and 6 mM DTT (final well concentrations 0.5 mM pNPP and 2 mM DTT). After preincubation at 25 °C for 10 min, the reaction was started by addition of 50 µL of 0.001 µg/µL PTP1B stock solution (final well concentration: 0.05 µg/well). The hydrolysis rate of pNPP to release p-nitrophenol was determined by measuring the absorbance at 405 nm every 30 s for 10 min. Preincubation and absorbance measurements were performed with a Multiscan FC microplate photometer with a built-in incubator (Thermo Scientific, Waltham, MA, USA) coupled to SkanIt version 2.5.1 software for data acquisition. The PTP1B inhibitory activity was expressed as percentage inhibition and was calculated using the following formula: % inhibition = (Slopeblank − Slopesample)/Slopeblank × 100
RK682 was used as a positive control and all measurements were performed in triplicate. Dose-response curves and IC50 values were obtained using GraFit version 5 (Erithacus Software Ltd., Horley, UK).

Test [2] has as its target T1, Recombinant human protein tyrosine phosphatase 1B (PTP1B). Description: Kinetics of PTP1B inhibition (Lineweaver-Burk plots, Michaelis-Menten fit). The test is classed as biochemical. As to conditions: for Mode of Inhibition: from Lineweaver-Burk plots; for Ki: pNPP 0.125-4.0 mM, mean ± SD, n = 3. How it is done: as §1
Enzyme kinetics of isolated PTP1B inhibitors was measured in triplicate using the standard assay conditions described above. Reactions were carried out with increasing concentrations of pNPP (0.125, 0.25, 0.5, 1.0, 2.0 and 4.0 mM) as substrate in the absence and presence of test samples (4 concentrations). The mode of inhibition was determined graphically from the Lineweaver-Burk plots. Kinetic parameters were calculated by fitting the data to the Michaelis–Menten equation using non-linear regression analysis (GraphPad Prism 7.0, GraphPad Software Inc., La Jolla, CA, USA).

The subject of a further test is PTP1B. As to conditions: cited from earlier work; for IC50: read-out: IC50 against PTP1B.

SMILES strings stand for the structures.

With `CC1(C)C=Cc2cc(-c3coc4cc(O)cc(O)c4c3=O)ccc2O1` [Compound 1, isoderrone], the IC50 (as a rule, the midpoint of a concentration-inhibition curve) in test [1] came out at 22.7 ± 1.7 µM. In addition, in test [2], the “Mode of Inhibition” value is given as “Non-competitive” and the inhibition constant (Ki) (commonly the equilibrium dissociation constant of an inhibitor or competing ligand from its target) worked out at 21.3 ± 2.8 µM. In addition, the “PTP1B inhibition at 25 µM” value in the test with PTP1B (concentration 25 µM) is on record as 78%.

For `CC1(C)C=Cc2c(cc(O)c3c(=O)c(-c4ccc(O)cc4)coc23)O1` [Compound 2, derrone], the IC50 in test [1] was 12.6 ± 1.6 µM; with PTP1B it was 20.63 ± 0.17 µM. Further, the “Mode of Inhibition” value in test [2] was “Non-competitive”. The Ki in test [2] was found to be 7.9 ± 1.9 µM.

Consider `CC1(C)C=Cc2c(cc3occ(-c4ccc(O)cc4)c(=O)c3c2O)O1` [Compound 3, alpinumisoflavone], for which the half-inhibitory concentration (IC50) in test [1] was 21.2 ± 3.8 µM. In test [2], the “Mode of Inhibition” value is on record as “Non-competitive” and the Ki was found to be 14.3 ± 2 µM. In addition, in the test with PTP1B, the half-maximal inhibitory concentration (IC50) was 37.52 ± 0.31 µM.

As for `CC(C)=C[C@@H]1C[C@](C)(/C=C/c2cc(-c3coc4cc(O)cc(O)c4c3=O)ccc2O)Oc2ccc(-c3coc4cc(O)cc(O)c4c3=O)cc21` [Compound 4, mucusisoflavone B], the concentration for half-maximal inhibition (IC50) in test [1] stood at 2.5 ± 0.2 µM. Besides, in test [2], the “Mode of Inhibition” value is listed as “Non-competitive” and the Ki came to 3 ± 0.5 µM.

With `CCCCCCCCCCCCCCCC(=O)C1=C(O)C(CO)OC1=O` (centres unmarked) [RK682, reference compound], the IC50 in test [1] came to 10.4 ± 1.6 µM. Moreover, the “IC50 of RK682” value in test [1] (positive control in crude extract screening) worked out at 3.8 ± 0.6 µg/mL.

The values are drawn from publication PMC6152321, “High-Resolution Inhibition Profiling Combined with HPLC-HRMS-SPE-NMR for Identification of PTP1B Inhibitors from Vietnamese Plants” (Molecules : A Journal of Synthetic Chemistry and Natural …, 2017).
